From patent publication EP4656642A1, “ESTROGEN RECEPTOR PROTEOLYSIS TARGETING CHIMERA COMPOUND AND USE THEREOF” (GAN & LEE PHARM CO., LTD, priority 2023, dated 2024)

What was measured:
Assay type in all cases: cell-based
MCF-7 cells = test: Inhibition of cell proliferation of MCF-7 cells (CCK-8, 9 days); details: treated for 9 days, CCK-8 kit (Table 6)
Text: Test Example 4 Inhibitory effect of the PROTAC compounds disclosed in the present disclosure on cell proliferation of MCF-7 cells
The complete medium required for MCF-7 cells (source ATCC) was DMEM (gibco, Product number :11995-065) basal medium containing 10% fetal bovine serum. MCF-7 cells were inoculated in 96-well plates at a density of 800 cells/well, and different concentrations of the PROTAC compounds 1-55 provided in the embodiments of the present disclosure and a positive control sample ARV-471 (source: Innochem) were prepared to treat cells, and cells were treated at 37°C in a cell culture incubator with 5% CO2 for 9 days. Cell viability was detected using a CCK -8 kit (Beyotime , Product number: C0040) according to the manufacturer's instruction. […] Table 5 IC50 values for inhibition of the proliferation of MCF-7 cells by the PROTAC compounds of the present disclosure and positive control sample

ERα [1] = target: T1, ERα (Homo sapiens, UniProt P03372); test: Degradation of ERα in MCF-7 cells (immunoblotting, 4 h)
T1 sequence (P03372 1-595): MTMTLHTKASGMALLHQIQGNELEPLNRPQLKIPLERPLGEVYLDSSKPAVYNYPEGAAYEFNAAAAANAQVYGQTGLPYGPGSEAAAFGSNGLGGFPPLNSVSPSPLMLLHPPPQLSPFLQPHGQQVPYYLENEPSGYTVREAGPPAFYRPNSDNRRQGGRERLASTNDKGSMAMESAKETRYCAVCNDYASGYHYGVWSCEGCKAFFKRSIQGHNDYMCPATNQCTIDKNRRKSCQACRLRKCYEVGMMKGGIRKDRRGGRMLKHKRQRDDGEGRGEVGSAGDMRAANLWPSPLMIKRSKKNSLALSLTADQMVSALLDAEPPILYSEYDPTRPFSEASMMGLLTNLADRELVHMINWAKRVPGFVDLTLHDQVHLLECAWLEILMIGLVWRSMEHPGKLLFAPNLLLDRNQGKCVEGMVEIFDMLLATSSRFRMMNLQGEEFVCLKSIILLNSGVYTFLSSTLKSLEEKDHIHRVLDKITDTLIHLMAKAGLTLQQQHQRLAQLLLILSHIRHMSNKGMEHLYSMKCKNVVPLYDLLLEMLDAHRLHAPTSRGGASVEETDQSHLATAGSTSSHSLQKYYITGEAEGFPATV
Procedure: MCF-7 cells were inoculated into 6-well plates at a density of 3×10^5 cells/well and cultured at 37°C, 5% CO2 for 24h. After the cells were attached to the wall, 1µL of the compound solution in dimethyl sulfoxide (final concentration 0.15-1000nM) was added and continued to be cultured in incubator at 37°C with 5% CO2 for 4 h. After 4 h, the culture medium was discarded, and each well was washed once with pre-cooled 1×DPBS, and the cells were lysed with a mixture of 50 µL of RIPA lysis buffer (P0013B, Beyotime) and 1× protease inhibitor (P1005, Beyotime), and then centrifuged at 14,000 g for 30 min at 4°C after resting on ice for 20 min, and the supernatant was carefully collected to detect the protein level of ERα by protein immunoblotting (Immunoblotting).
Protein immunoblotting: The total protein concentration in the collected cell lysate supernatant was determined by BCA Protein Concentration Assay Kit (Enhanced) (P0009, Beyotime). According to the total protein concentration detected by BCA, the protein was adjusted to 1 µg/µL with RIPA lysis buffer and 5× SDS-PAGE protein loading buffer (MB01015, Genscript), and the protein was denatured by water bath at 95°C for 5 min, and then centrifuged after denaturation to enrich the condensate on the wall of the centrifuge tubes as a loading sample. […] At the end of electrophoresis, the proteins in the SDS-PAGE gels were transferred to a PVDF membrane at a constant voltage of 100 V for 60 min. After that, the PVDF membrane corresponding to ERα protein and internal reference protein was cut out and incubated in 1×QµickBlock blocking solution (P0252, Beyotime) for 30 min at room temperature on a shaker. […] Protein profiles were analyzed by Image Studio Lite analysis software for grayscale values. Grayscale correction values were calculated for each sample using the Formula: corrected grayscale value = grayscale value of the target protein /corresponding grayscale value of the internal reference. The degradation rate for the compounds was then calculated by comparing the corrected grayscale values of the compound group to the control group. Table 7 Degradation rate (%) of ERα by the PROTAC compounds of the present disclosure and positive control sample in MCF-7 cells

ERα [2] = target: T1, ERα; test: Degradation of ERα in T-47D cells (immunoblotting, 4 h); set-up: host or cells: T-47D
Procedure: T-47D cells were inoculated into 6-well plates at a density of 3×10^5 cells/well and cultured at 37°C, 5% CO2 for 24 h. After the cells were attached to the wall, 1µL of the compound solution in dimethyl sulfoxide (final concentration 0.15-1000 nM) was added and continued to be cultured in the incubator with 5% CO2 at 37°C for 4 h. After 4 h, the culture medium was discarded, and each well was washed once with pre-cooled 1×DPBS, and the cells were lysed with a mixture of 50 µL of RIPA lysis buffer (P0013B, Beyotime) and 1× protease inhibitor (P1005, Beyotime), and then centrifuged at 14,000 g for 30 min at 4°C after resting on ice for 20 min, and the supernatant was carefully collected to detect the protein level of ERα by protein immunoblotting (Immunoblotting).

| Structure (SMILES) | IC50 (MCF-7 cells) | Degradation rate (%) of ERα in MCF-7 cells (ERα [1]; 1nM compound) | Degradation rate (%) of ERα in MCF-7 cells (ERα [1]; 10nM compound) | Degradation rate (%) of ERα in T-47D cells (ERα [2]; 1nM compound) | Degradation rate (%) of ERα in T-47D cells (ERα [2]; 10nM compound) | IC50 (MCF-7 cells; Homo sapiens, MCF7, 216 h) |
| --- | --- | --- | --- | --- | --- | --- |
| CN(C)C(=O)[C@H]1CC(N2CCC3(CC2)COc2c3ccc3c2CN(C2CCC(=O)NC2=O)C3=O)CCN1C1CC2(CCN(c3ccc([C@@H]4c5ccc(O)cc5CC[C@@H]4c4ccccc4)cc3)CC2)C1 (some centres unmarked) [K32] | 0.779 nM | 66% | 88% | 67% | 90% | – |
| C[C@@H]1Cc2c(ccc3[nH]ncc23)C(c2ccc(N3CCC4(CCN(CC(=O)N5CCC6(CC5)COc5c6ccc6c5CN(C5CCC(=O)NC5=O)C6=O)C4)CC3)cn2)N1CC(F)(F)F (some centres unmarked) [J11] | 4370 nM | 40% | 75% | 52% | 82% | – |
| O=C1CCC(N2Cc3cc4c(cc3C2=O)CCC2(CN(C3CN(C5CCN(c6ccc([C@@H]7c8ccc(O)cc8CC[C@@H]7c7ccccc7)cc6)CC5)C3)C2)O4)C(=O)N1 (some centres unmarked) [A57] | 2790 nM | – | – | 34% | 43% | – |
| CN(C(=O)CN1CCC2(CC1)COc1c2ccc2c1C(=O)N(C1CCC(=O)NC1=O)C2=O)C1CCC2(CC1)CN(c1ccc([C@@H]3c4ccc(O)cc4CC[C@@H]3c3ccccc3)cc1)C2 (some centres unmarked) [K44] | 936 nM | 1% | 56% | 36% | 66% | – |
| COC(=O)[C@H]1CC(N2CCC3(CC2)COc2c3ccc3c2CN(C2CCC(=O)NC2=O)C3=O)CCN1CC1CCN(c2ccc([C@@H]3c4ccc(O)cc4CC[C@@H]3c3ccccc3)cc2)CC1 (some centres unmarked) [J7] | 486 nM | 29% | 75% | 16% | 67% | – |
| O=C1CCC(N2Cc3c(ccc4c3OCC43CCN(C4CCN(C5CCN(c6ccc(C7c8ccc(O)cc8CCC7c7ccccc7)cc6)CC5)CC4F)CC3)C2=O)C(=O)N1 (centres unmarked) [G13] | 6.82 nM | 30% | 71% | 43% | 80% | – |
| O=C1CCC(N2Cc3c(ccc4c3OC3(CC4)CCN(C4CC5(CCN(c6ccc([C@@H]7c8ccc(O)cc8CC[C@@H]7c7ccccc7)cc6)CC5)C4)CC3)C2=O)C(=O)N1 (some centres unmarked) [L21] | 91 nM | -11% | -17% | 26% | 21% | – |
| O=C1CCC(N2Cc3cc4c(cc3C2=O)OC2(CC4)CN(C3CN(C4CCN(c5ccc([C@@H]6c7ccc(O)cc7CC[C@@H]6c6ccccc6)cc5)CC4)C3)C2)C(=O)N1 (some centres unmarked) [A56] | 2790 nM | – | – | 38% | 38% | – |
| O=C1CCC(N2Cc3c(ccc4c3OCC43CCN(C[C@H]4CC[C@H](OC5CCN(c6ccc([C@@H]7c8ccc(O)cc8CC[C@@H]7c7ccccc7)cc6)CC5)CC4)CC3)C2=O)C(=O)N1 (some centres unmarked) [G24] | – | – | – | 47% | 81% | – |
| C[C@]12CC[C@@H]3c4ccc(O)cc4CC[C@H]3[C@@H]1CC[C@@H]2O [E2] | – | – | – | – | – | 34.8 nM |
| O=C1CCC(N2C(=O)c3cc4c(cc3C2=O)OC2(CC4)CN(CC3CCN(c4ccc([C@@H]5c6ccc(O)cc6CC[C@@H]5c5ccccc5)cc4)CC3)C2)C(=O)N1 (some centres unmarked) [H1] | – | -13% | -16% | -6% | -15% | – |
| O=C1CCC(N2C(=O)c3ccc4c(c3C2=O)OCC42CCN(C3CC4(CCN(c5ccc([C@@H]6c7ccc(O)cc7CC[C@@H]6c6ccccc6)cc5)CC4)C3)CC2)C(=O)N1 (some centres unmarked) [L17] | – | -2% | 10% | 24% | 23% | – |
| O=C1CCC(N2Cc3c(ccc4c3OCC43CCN(CC(=O)N4CCC5(CC4)CCN(c4ccc([C@@H]6c7ccc(O)cc7CC[C@@H]6c6ccccc6)cc4)CC5)CC3)C2=O)C(=O)N1 (some centres unmarked) [A74] | – | 28% | 62% | 73% | 87% | – |
| CN(C[C@H]1CC[C@H](C(=O)N2CCC3(CC2)COc2c3ccc3c2CN(C2CCC(=O)NC2=O)C3=O)CC1)[C@@H]1CCN(c2ccc([C@@H]3c4ccc(O)cc4CC[C@@H]3c3ccccc3)cc2)C[C@@H]1F (some centres unmarked) [D12] | – | 39% | 61% | 55% | 81% | – |
| O=C1CCC(N2Cc3cc4c(cc3C2=O)CCC2(CN(CC3CCC5(CC3)CCN(c3ccc([C@@H]6c7ccc(O)cc7CC[C@@H]6c6ccccc6)cc3)CC5)C2)O4)C(=O)N1 (some centres unmarked) [A38] | 240 nM | -1% | -24% | – | – | – |
| CC1(C(=O)N2CCC(N3CCC4(CC3)COc3c4ccc4c3CN(C3CCC(=O)NC3=O)C4=O)CC2)CCN(c2ccc([C@@H]3c4ccc(O)cc4CC[C@@H]3c3ccccc3)cc2)CC1 (some centres unmarked) [N 1] | 14.8 nM | – | – | – | – | – |
| O=C1CCC(N2Cc3c(ccc4c3OCC43CCN(S(=O)(=O)[C@H]4CC[C@H](C(=O)N5CCN(c6ccc([C@@H]7c8ccc(O)cc8CC[C@@H]7c7ccccc7)cc6)CC5)CC4)CC3)C2=O)C(=O)N1 (some centres unmarked) [G26] | 32400 nM | 37% | 66% | – | – | – |
